Patent US7211599B2, “Use of etodolac to treat hyperplasia” (The Regents of the University of California, priority 2002, dated 2007)
“And” between values parts separate entries of the source, which are not always exact repeats. Equal entries are not always repeated. Marks after values point to notes of the source that are not given here.

What was measured:
[1] = cited from earlier work
[2] = test system: prostaglandin synthetase; details: Demerson et al. 1983; cited from earlier work
[3] = test system: rats with adjuvant polyarthritis; details: Demerson et al. 1983; cited from earlier work
[4] = test system: hyperplastic cells; assay: Activity against hyperplastic cells; details: compared with S(+) enantiomer
Source text: The pharmacokinetics of etodolac have been extensively reviewed by D. R. Brocks et al., Clin. Pharmacokinet., 26, 259 (1994). Etodolac is marketed as the racemate.

[5] = test system: transgenic adenocarcinoma mouse prostate (TRAMP) mouse; assay: TRAMP animal model: average weight of dissected prostate lobes; format: in vivo
Protocol: (§1) The transgenic adenocarcinoma mouse prostate (TRAMP) mouse, was used to evaluate the effect of R-etodolac on prostate cancer progression. The etodolac was compounded into the diet at 312 ppm (low dose) and 1250 ppm (high dose) and the animals were treated for 18 weeks. At necoscopy, the urogenital system was removed and weighed. The prostate lobes, seminal vesicles, lungs, liver, and periaortic lymph nodes were preserved and sectioned for histological evaluation and graded on a 1-6 scale for degree of hyperplasia/neoplasia/carcinoma.

[6] = test system: transgenic adenocarcinoma mouse prostate (TRAMP) mouse; assay: TRAMP animal model: histopathological evaluation of the prostate (grade 1-6); format: in vivo; set-up: key to Average mouse Staging / Overall Mean (staging of group) / Histopathological grade, Lateral prostate: histological grade on 1-6 scale of hyperplasia/neoplasia/carcinoma; details: for Overall Mean (staging of group): TRAMP mice; for Average mouse Staging: mean of lobe grades
Protocol: as §1

[7] = cited from earlier work; remark: listed apart in the source
[8] = after a 200 mg dose in six elderly patients
[9] = TRAMP mice, High Dose (1250 ppm in diet), 18 weeks, average ± standard deviation
[10] = TRAMP mice, Low Dose (312 ppm in diet), 18 weeks, average ± standard deviation
[11] = TRAMP mice treated with R-etodolac

Structure (SMILES): CCc1cccc2c3c([nH]c12)C(CC)(CC(=O)O)OCC3 (racemic) [etodolac, 1,8-diethyl-1,3,4,9-tetrahydro[3,4-6]indole-1-acetic acid]
- Elimination half-life ([1]; racemic mixture): 6 to 8 h

Structure (SMILES): CCc1cccc2c3c([nH]c12)[C@](CC)(CC(=O)O)OCC3 (single isomer, unassigned) [S(+)-enantiomer of etodolac, reference compound]
- Maximum concentration relative to R-enantiomer [1, 8]: 5 fold lower
- Prostaglandin synthetase inhibitory activity [2]: almost all
- Anti-inflammatory activity (reduction in paw volume) [3]: almost all of the anti-inflammatory activity of the racemate

Structure (SMILES): CCc1cccc2c3c([nH]c12)[C@@](CC)(CC(=O)O)OCC3 [R-etodolac]
- Activity against hyperplastic cells [4]: potent activity against hyperplastic cells that is at least equivalent to that of the S(+) enantiomer
- Maximum plasma concentration [1, 8]: about 33 μM
- Plasma concentrations of R-enantiomer relative to S-enantiomer ([1]; in plasma after administration of RS-etodolac, Brocks et al. 1994): about 10 fold
- Average weigh (g) Anterior Prostate [5, 9]: 0.076 ± 0.012 g
- Average weigh (g) Dorsal Prostate [5, 9]: 0.053 ± 0.013 g
- Average weigh (g) Lateral Prostate [5, 9]: 0.016 ± 0.003 g
- Average weigh (g) Ventral prostate [5, 9]: 0.014 ± 0.001 g
- Total Weigh average [5, 9]: 0.160 ± 0.022 g
- Average weigh (g) Anterior Prostate [5, 10]: 0.062 ± 0.033 g
- Average weigh (g) Dorsal Prostate [5, 10]: 0.062 ± 0.027 g
- Average weigh (g) Lateral Prostate [5, 10]: 0.015 ± 0.001 g
- Average weigh (g) Ventral prostate [5, 10]: 0.024 ± 0.017 g
- Overall size of the prostates ([5]; TRAMP mice, highest dose): reduction of the overall size of the prostates
- Overall size of the prostates ([5]; treated mice compared to untreated mice): reduces the overall size of the prostates
- Effects in any other tissues [6, 11]: No other effects in any other tissues were observed
- Progression of the disease (histological analysis) [6, 11]: maintaining the animals in a pre-cancerous stage
- Overall Mean (staging of group) ([6]; High dose group (1250 ppm in diet), 18 weeks, statistically significant from control group, p < 0.005): 3.3*
- Overall Mean (staging of group) ([6]; Low dose group (312 ppm in diet), 18 weeks): 4.3
- Average mouse Staging ([6]; individual TRAMP mice, High dose (1250 ppm in diet), 18 weeks): 3.8 and 3.3 (3×) and 3.5 and 3.0
- Histopathological grade, Lateral prostate ([6]; individual TRAMP mice, Low dose (312 ppm in diet), 18 weeks, grade 1-6): 3.5
- Average mouse Staging ([6]; individual TRAMP mice, Low dose (312 ppm in diet), 18 weeks): 4.0 (2×) and 5.5 and 3.6 and 4.5 and 6.0
- Conversion to the S(+) enantiomer in vivo [7]: not converted significantly
- Anti-inflammatory activity (reduction in paw volume) [3]: No anti-inflammatory activity was discernible
